Measurements reported in BigSolDB 2.1.

CCCc1nc(C(C)(C)O)c(C(=O)OCC)n1Cc1ccc(-c2ccccc2-c2nnnn2C(c2ccccc2)(c2ccccc2)c2ccccc2)cc1
solubility (mole fraction)
Details	278.15 K	283.15 K	288.15 K	293.15 K	298.15 K	303.15 K	308.15 K	313.15 K	318.15 K
in DMAc	0.00501	0.00574	0.00655	0.00756	0.00872	0.01	0.0114	0.0129	0.0148
in DMF	0.00117	0.00148	0.00186	0.00229	0.0028	0.00337	0.004	0.00471	0.00553
in acetone	0.000617	0.000854	0.00115	0.00154	0.00197	0.00242	0.0029	0.0035	0.00417
in acetonitrile	0.00027	0.000315	0.000373	0.00044	0.000513	0.000597	0.000689	0.00079	0.000901
in cyclohexanone	0.00729	0.00844	0.00967	0.0112	0.0128	0.0147	0.0166	0.0187	0.0211
in ethanol	8.35e-05	0.000102	0.000124	0.000147	0.000174	0.000206	0.000239	0.000277	0.000318
in ethyl acetate	0.00177	0.0021	0.00256	0.00308	0.00372	0.00445	0.00523	0.00607	0.00699
in isobutanol	0.00012	0.000145	0.000177	0.000216	0.000255	0.000302	0.000352	0.000408	0.000472
in isopropanol	5.42e-05	6.87e-05	8.5e-05	0.000102	0.000122	0.000144	0.00017	0.000197	0.000228
in methanol	4.18e-05	5.35e-05	6.64e-05	8.11e-05	9.59e-05	0.000112	0.000131	0.000152	0.000175
in n-butanol	0.000177	0.000211	0.000253	0.000298	0.000348	0.000401	0.000458	0.000521	0.000588
in n-propanol	0.000144	0.000175	0.000213	0.000253	0.000298	0.000346	0.000397	0.000454	0.000519
in toluene	0.00257	0.0032	0.00403	0.00503	0.00608	0.00738	0.00882	0.0104	0.0124
